Assay [1] deals with not transfected HEK-293 cells. Put plainly: Effect on [Ca2+]i in not transfected HEK-293 cells (baseline). Format: cell-based, human. The following applies: AITC 100 μM. As to the method: Compound and extracts’ effects on intracellular Ca^2+ concentration ([Ca^2+]i) were determined using the selective intracellular fluorescent probe for Ca^2+ Fluo-4. Assay of rat TRPA1, TRPV2, TRPV3, TRPV4, TRPM8 or human TRPV1 mediated elevation of intracellular Ca^2+ in transfected HEK-293 cells are been performed as described. Briefly, human embryonic kidney (HEK-293) cells, stably transfected with rat TRPA1, TRPV2, TRPV3, TRPV4, TRPM8 or human TRPV1 (selected by Geneticin 600 μg mL^−1) or not transfected, were cultured in EMEM + 2 mM Glutamine + 1% Non-Essential Amino Acids (NEAA) + 10% FBS and maintained at 37 °C with 5% CO2. Stable transfections were checked by quantitative real-time polymerase chain reaction (PCR), quantitative real-time PCR was performed by an iCycler-iQ (Bio-Rad, Hercules, CA, USA) in a 20 μL reaction mixture containing the following: 10 μL iQ SYBR Green Supermix 2X (Bio-Rad), 20 ng of cDNA (calculated on the basis of the retro-transcribed RNA), and 330 nM for each primer. […] Cell fluorescence before and after the addition of various concentrations of test compounds and extracts were measured normalizing the effects against the response to ionomycin (4 µM). […] The potency of the compounds (EC50 values) are determined as the concentration required to produce half-maximal increases in [Ca^2+]i. […]

A further assay concerns the target T1, rat TRPA1 (Rattus norvegicus, UniProt Q6RI86).
T1 construct: expressed in transfected cells; host or cells: HEK-293
The assay can be described thus: Elevation of intracellular Ca2+ (Fluo-4) in HEK-293 cells stably transfected with rat TRPA1; agonist and antagonist/desensitizing behaviour. Format: cell-based. The conditions noted are these: AP18 at 50 μM, 5 min pre-incubation, rTRPA1-HEK-293. As to the method: Assay of rat TRPA1, TRPV2, TRPV3, TRPV4, TRPM8 or human TRPV1 mediated elevation of intracellular Ca^2+ in transfected HEK-293 cells are been performed as described. Briefly, human embryonic kidney (HEK-293) cells, stably transfected with rat TRPA1, TRPV2, TRPV3, TRPV4, TRPM8 or human TRPV1 (selected by Geneticin 600 μg mL^−1) or not transfected, were cultured in EMEM + 2 mM Glutamine + 1% Non-Essential Amino Acids (NEAA) + 10% FBS and maintained at 37 °C with 5% CO2. Stable transfections were checked by quantitative real-time polymerase chain reaction (PCR), quantitative real-time PCR was performed by an iCycler-iQ (Bio-Rad, Hercules, CA, USA) in a 20 μL reaction mixture containing the following: 10 μL iQ SYBR Green Supermix 2X (Bio-Rad), 20 ng of cDNA (calculated on the basis of the retro-transcribed RNA), and 330 nM for each primer. Optimized primers for SYBR Green analysis (and relative TaOpt) and optimum annealing temperatures were designed by Allele-Id software version 7.0 (Biosoft International, Palo Alto, CA, USA) and were synthesized (HPLC-purification grade) by MWG-Biotech AG (Ebersberg, Germany). Assays were performed in quadruplicate (maximal ΔCt of replicate samples, <0.5). Relative expression analysis, correct for PCR efficiency and normalized with respect to reference genes β-actin and glyceraldehyde 3-phosphate dehydrogenase, was performed by GENEX software (Bio-Rad). […] The day of the experiment the cells were loaded with Fluo-4 AM (4 μM in DMSO containing 0.02% Pluronic F-127) for 1 h in the dark at room temperature, rinsed and resuspended in Tyrode’s solution (145 mM NaCl, 2.5 mM KCl, 1.5 mM CaCl2, 1.2 mM MgCl2, 10 mM D-glucose, and 10 mM HEPES, pH 7.4), finally transferred to a quartz cuvette of a spectrofluorimeter (Perkin-Elmer LS50B; λEX = 488 nm, λEM = 516 nm) equipped with PTP-1 Fluorescence Peltier System (PerkinElmer Life and Analytical Sciences, Waltham, MA, USA) under continuous stirring. Cell fluorescence before and after the addition of various concentrations of test compounds and extracts were measured normalizing the effects against the response to ionomycin (4 µM). The values of the effect on [Ca^2+]i in HEK-293 cells not transfected are used as baseline and subtracted from the values obtained from transfected cells. […] The potency of the compounds (EC50 values) are determined as the concentration required to produce half-maximal increases in [Ca^2+]i. In TRPV3 assay TRPV3-expressing HEK293 cells were first sensitized with the structurally unrelated agonist 2-aminoethoxydiphenyl borate (100 μM). Antagonist/desensitizing behaviour is evaluated against the agonist of the TRP analyzed by adding the compounds directly in the quartz cuvette 5 min before stimulation of cells with the agonist. […] In order to assess functional antagonism of TRPA1 channels, AP18, 4-(4-chlorophenyl)-3-methyl-3-buten-2-one oxime […] Dose-response curve fitting (sigmoidal dose-response variable slope) and parameter estimation were performed with Graph-Pad Prism8® (GraphPad Software Inc., San Diego, CA, USA). All determinations were performed at least in triplicate.

The structures appear in SMILES notation.

T1 sequence (Q6RI86 whole entry): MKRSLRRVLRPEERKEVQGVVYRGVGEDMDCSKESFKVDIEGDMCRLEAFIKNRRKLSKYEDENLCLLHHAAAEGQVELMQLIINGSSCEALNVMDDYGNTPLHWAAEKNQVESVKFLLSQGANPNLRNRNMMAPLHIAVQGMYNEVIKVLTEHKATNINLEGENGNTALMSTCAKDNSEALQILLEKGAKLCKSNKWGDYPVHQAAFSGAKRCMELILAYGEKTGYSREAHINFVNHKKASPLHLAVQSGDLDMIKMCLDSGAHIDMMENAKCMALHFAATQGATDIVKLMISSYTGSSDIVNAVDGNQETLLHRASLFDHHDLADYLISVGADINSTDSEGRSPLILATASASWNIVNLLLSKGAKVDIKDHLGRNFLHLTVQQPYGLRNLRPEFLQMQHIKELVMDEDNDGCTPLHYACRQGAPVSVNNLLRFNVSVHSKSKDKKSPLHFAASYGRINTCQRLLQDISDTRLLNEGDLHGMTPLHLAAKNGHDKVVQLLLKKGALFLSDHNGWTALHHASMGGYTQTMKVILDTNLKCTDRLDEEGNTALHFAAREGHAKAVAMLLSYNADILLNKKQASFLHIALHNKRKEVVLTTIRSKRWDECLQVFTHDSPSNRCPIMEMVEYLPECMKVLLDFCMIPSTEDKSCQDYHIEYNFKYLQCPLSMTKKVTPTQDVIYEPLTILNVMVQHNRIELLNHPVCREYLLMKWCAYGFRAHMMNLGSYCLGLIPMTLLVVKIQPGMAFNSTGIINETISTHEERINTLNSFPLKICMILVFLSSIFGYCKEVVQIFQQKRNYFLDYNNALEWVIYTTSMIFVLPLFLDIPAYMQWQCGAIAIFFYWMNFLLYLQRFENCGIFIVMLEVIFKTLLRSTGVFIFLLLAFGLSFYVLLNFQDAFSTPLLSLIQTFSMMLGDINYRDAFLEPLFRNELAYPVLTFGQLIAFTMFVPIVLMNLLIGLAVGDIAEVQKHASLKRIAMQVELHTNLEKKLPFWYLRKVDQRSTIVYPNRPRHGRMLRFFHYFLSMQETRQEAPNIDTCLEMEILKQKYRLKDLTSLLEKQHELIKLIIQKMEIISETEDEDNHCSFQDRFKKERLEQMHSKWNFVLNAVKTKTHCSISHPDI

Regarding `C=CCN=C=S` [AITC, Allylisothiocyanate, reference compound], the “Effect on not transfected HEK-293 cells” value in assay [1] is reported as “about 1%”.
With `CC(=Cc1ccc(Cl)cc1)C(C)=NO` [AP18, 4-(4-chlorophenyl)-3-methyl-3-buten-2-one oxime, reference compound], at rat TRPA1, the “Reduction of elevation of intracellular Ca2+ induced by AITC (100 μM)” value turned out to be 68.6 ± 3.0% and the “Reduction of elevation of intracellular Ca2+ induced by moringin (10 μM)” value was found to be 64.1 ± 2.7%.

For the origin of these results see article PMC7070407, “Moringin, A Stable Isothiocyanate from Moringa oleifera, Activates the Somatosensory and Pain Receptor TRPA1 Channel In Vitro” (Molecules, 2020).
